Values quoted from earlier work in US11969522B2, “Use of immune modulators to improve nerve regeneration” (The Board of Regents of the University of Texas System, priority 2019, dated 2024).

Experiments:
hematopoietic stem cells = details: animal and human studies
CXCR4 = details: chronic exposure, rhesus macaques

Compound | hematopoietic stem cell mobilization (hematopoietic stem cells) | T lymphocyte CXCR4 expression on both CD4+ and CD8+ T lymphocytes (CXCR4)
c1cc(CN2CCCNCCNCCCNCC2)ccc1CN1CCCNCCNCCCNCC1 [Plerixafor] | very efficient inducer of hematopoietic stem cell mobilization | –
CCCCCc1cc(O)c2c(c1)OC(C)(C)[C@@H]1CCC(C)=C[C@@H]21 [THC] | – | increase
